According to US11413278B2, “Compounds and methods for promoting stress resistance” (priority 2015, dated 2022):
Like-named read-outs stand apart in the source and are kept apart here.

What was measured:
human PARP1 = biological target: T1, human PARP1 (Homo sapiens, UniProt P09874); test: PARP inhibitor assay (HT Fluorescent Homogeneous PARP Inhibition Assay Kit); format: biochemical; settings: score
T1 construct: purchased Trevigen
Outline: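 Human PARP1 with NAD and activated DNA, compounds at 10 μM final, 30 min at room temperature in dark. Resazurin/diaphorase cycling mix then added for 1 hr in dark before stop buffer; fluorescent homogeneous kit read-out.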

WI-38 cells [1] = test: CdCl2 (cadmium) resistance assay; format: cell-based, human; settings: for fold induction at 10 µM: Homo sapiens, 12 h; for Assay 4: H2O2- & Cd-resistant / Assay 2: Cadmium-resistant: YES/NO; for Assay 2: Cadmium-resistant: * indicates partial
Outline: (§1)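 WI-38 cells were given compounds at five final concentrations (0.25–20 μM) in triplicate, followed by cadmium or MMS for 12 h. For MMS, medium was switched from OptiMEM+10% FBS to serum-free DMEM+2% BSA when compounds were added, 24 h before stressor. Two independent assays were run, analysed by global variance t-test.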

WI-38 cells [2] = test: MMS resistance assay; format: cell-based, human; settings: for fold induction at 10 µM: Homo sapiens, 12 h
Outline: as §1

[3] = tested on: phosphorylated γH2A.X and TP53BP1; test: DNA damage marker analysis (immuno-staining); settings: for activity at 10 µM: Homo sapiens, WI-38, 24 h
Outline: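 WI-38 cells were cultured 24 h, then treated with compounds for 24 h; H2O2 (700 μM, 3 h) and doxorubicin (300 nM, 24 h) served as DNA-damage controls. After fixation, cells were immunostained for phospho-γH2A.X (Ser-139) and phospho-TP53BP1 (Ser-1778), counterstained with DAPI, and imaged by automated high-content microscopy.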

C. elegans = C. elegans lifespan assays (liquid and plate); format: in vivo, Caenorhabditis elegans; settings: for ILS at 66 µM / ILS at 60 µM: Caenorhabditis elegans; for O = Life span- extending scores in worms: score scale 0 to 2, 4 to 6 independent trials; for M = Lifespan-extending scores in worms: summary score; for ILS at 66 µM / Lifespan assay in liquid / Lifespan assay on plates: at 66 uM
[4] = Exp. 1, WI-38 cells, 10 uM, normalized ATP measurement, read-out: Exp. 1, under Cd2Cl2 stress treatment, at 10 uM (fold change)
[5] = Exp. 2, WI-38 cells, 10 uM, normalized ATP measurement, read-out: Exp. 2, under Cd2Cl2 stress treatment, at 10 uM (fold change)
[6] = score in summary of 38 core set hits
[7] = Exp. 1, WI-38 cells, 10 uM, normalized ATP measurement, read-out: Exp. 1, under MMS stress treatment, at 10 uM (fold change)
[8] = Exp. 2, WI-38 cells, 10 uM, normalized ATP measurement, read-out: Exp. 2, under MMS stress treatment, at 10 uM (fold change)
[9] = read-out: Experiment 1, H2A.X-P DNA damage foci staining (no H2O2 stress treatment), at 10 uM
[10] = read-out: Experiment 2, H2A.X-P DNA damage foci staining (no H2O2 stress treatment), at 10 uM
[11] = read-out: Experiment 2, H2A.X-P DNA damage foci staining (under H2O2 stress treatment), at 10 uM
[12] = read-out: Experiment 2, TP53BP1-P DNA damage foci staining (no H2O2 stress treatment), at 10 uM
[13] = read-out: Experiment 2, TP53BP1-P DNA damage foci staining (under H2O2 stress treatment), at 10 uM
[14] = Assay 2(z), 1.0 × 10^9 bacteria/ml, wild type + FuDR (2012 July), read-out: Lifespan assay in liquid
[15] = Assay 3(aa), 2.5 × 10^9 bacteria/ml, wild type + FuDR, read-out: Lifespan assay in liquid
[16] = Assay 4(ab), 2.0 × 10^10 bacteria/ml, CF512 worms, no FuDR, read-out: Lifespan assay on plates
[17] = Exp. 1, WI-38 cells, 10 uM, normalized ATP measurement
[18] = Exp. 2, WI-38 cells, 10 uM, normalized ATP measurement
[19] = WI-38 cells, 10 μM, both stressors
[20] = Experiment 2, WI-38 cells, 10 μM, 24 hrs, no H2O2, normalized marker-positive fraction, n = 3
[21] = Experiment 2, WI-38 cells, 10 μM, 24 hrs, under H2O2 stress, normalized marker-positive fraction, n = 3

T1 sequence (P09874 whole entry): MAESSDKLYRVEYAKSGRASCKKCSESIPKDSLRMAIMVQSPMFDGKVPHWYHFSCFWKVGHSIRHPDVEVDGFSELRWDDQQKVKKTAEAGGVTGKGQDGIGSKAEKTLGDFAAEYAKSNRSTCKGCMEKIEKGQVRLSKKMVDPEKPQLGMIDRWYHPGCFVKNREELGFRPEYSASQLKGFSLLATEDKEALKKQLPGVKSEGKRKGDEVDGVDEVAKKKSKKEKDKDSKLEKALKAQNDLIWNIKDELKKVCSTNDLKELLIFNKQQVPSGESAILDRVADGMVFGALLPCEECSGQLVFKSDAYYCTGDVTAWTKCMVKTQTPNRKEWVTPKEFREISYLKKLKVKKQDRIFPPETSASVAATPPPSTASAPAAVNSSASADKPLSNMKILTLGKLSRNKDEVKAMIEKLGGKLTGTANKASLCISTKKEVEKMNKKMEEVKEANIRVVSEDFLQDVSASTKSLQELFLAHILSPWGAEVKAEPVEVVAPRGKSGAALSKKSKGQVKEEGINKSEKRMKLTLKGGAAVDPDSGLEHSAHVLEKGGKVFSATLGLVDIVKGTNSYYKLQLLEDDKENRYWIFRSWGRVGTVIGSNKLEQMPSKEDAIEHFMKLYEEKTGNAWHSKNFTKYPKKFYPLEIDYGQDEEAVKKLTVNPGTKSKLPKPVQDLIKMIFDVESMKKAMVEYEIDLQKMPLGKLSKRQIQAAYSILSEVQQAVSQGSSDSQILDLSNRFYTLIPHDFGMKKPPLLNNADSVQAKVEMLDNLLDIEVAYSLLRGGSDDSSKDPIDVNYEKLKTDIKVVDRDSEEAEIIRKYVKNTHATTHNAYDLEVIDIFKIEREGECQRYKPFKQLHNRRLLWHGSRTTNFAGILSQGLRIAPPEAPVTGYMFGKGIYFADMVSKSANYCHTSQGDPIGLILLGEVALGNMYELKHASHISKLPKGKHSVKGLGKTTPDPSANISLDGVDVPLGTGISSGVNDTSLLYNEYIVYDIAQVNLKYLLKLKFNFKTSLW

## Nc1ccccc1S(=O)(=O)Nc1cccc2cccnc12 [Gr-3C]
Human PARP1
  L = PARP inhibition: 0
WI-38 cells [1]; [4]
  fold induction at 10 µM: 0.06
WI-38 cells [1]; [5]
  fold induction at 10 µM: 0.4
WI-38 cells [1]; [6]
  A = Cadmium resistant: 0
WI-38 cells [1]; summary score
  A = Cadmium resistant: 0
  C = H2O2- & Cd-resistant: 0
WI-38 cells [2]; [7]
  fold induction at 10 µM: 1.06
WI-38 cells [2]; [8]
  fold induction at 10 µM: 0.84
WI-38 cells [2]; [6]
  B = MMS resistant: 0
WI-38 cells [2]; summary score
  B = MMS resistant: 0
  D = Triple resistant: 0
[3]; [9]
  activity at 10 µM: 113%
[3]; [10]
  activity at 10 µM: 404%
[3]; [11]
  activity at 10 µM: 136%
[3]; [12]
  activity at 10 µM: 254%
[3]; [13]
  activity at 10 µM: 390%
[3]; human, 24 h
  P = Potential DNA-damaging: 1
  R = Potential DNA damaging: 1
C. elegans; [14]
  ILS at 66 µM: 18.9%
C. elegans; [15]
  ILS at 66 µM: 11.9%
C. elegans; [16]
  ILS at 66 µM: 8%
C. elegans; read-out: relative change of mean lifespan vs control, Trial 1
  ILS at 60 µM: 18.9%
C. elegans; read-out: relative change of mean lifespan vs control, Trial 2
  ILS at 60 µM: 11.9%
C. elegans; read-out: relative change of mean lifespan vs control, Trial 3
  ILS at 60 µM: 8%
C. elegans; in at least 3 to 4 trials, group range ~10% to ~50%
  Extension of C. elegans' lifespan (qualitative): could extend animal's lifespan
C. elegans
  O = Life span- extending scores in worms: 2 (2 for observed in more than 2 trials)
  M = Lifespan-extending scores in worms: 2 (2 for observed in more than 2 trials)

## COc1cc2c(no[n+]2[O-])n2nnnc12 [O11]
Human PARP1
  L = PARP inhibition: 0
WI-38 cells [1]
  CdCl2-resistant: YES
  H2O2- & CdCl2-resistant: YES
  Assay 4: H2O2- & Cd-resistant: YES
  Assay 2: Cadmium-resistant: YES
WI-38 cells [1]; [17]
  Exp. 1, under CdCl2 stress treatment, at 10 uM (fold change): 3.78 fold change
WI-38 cells [1]; [18]
  Exp. 2, under CdCl2 stress treatment, at 10 uM (fold change): 2.80 fold change
WI-38 cells [1]; WI-38 cells, 10 μM
  CdCl2-resistant: YES
WI-38 cells [1]; [19]
  H2O2- & CdCl2-resistant: YES
WI-38 cells [1]; [6]
  A = Cadmium resistant: 1
WI-38 cells [1]; summary score
  A = Cadmium resistant: 1
  C = H2O2- & Cd-resistant: 1
WI-38 cells [2]; [17]
  Exp. 1, under MMS stress treatment, at 10 uM (fold change): 0.97 fold change
WI-38 cells [2]; [18]
  Exp. 2, under MMS stress treatment, at 10 uM (fold change): 4.20 fold change
WI-38 cells [2]; [6]
  B = MMS resistant: 0
WI-38 cells [2]; summary score
  B = MMS resistant: 0
  D = Triple resistant: 0
[3]; 10 μM, 24 hrs, absence of H2O2
  Percentage of both γH2A.X- and TP53BP1-positive cells (DNA damage markers): did not appear to increase both
[3]; Experiment 1, WI-38 cells, 10 μM, 24 hrs, no H2O2, normalized marker-positive fraction, n = 3
  Experiment 1, H2A.X-P DNA damage foci staining (no H2O2 stress treatment), at 10 uM: 83.1%,
[3]; [20]
  Experiment 2, H2A.X-P DNA damage foci staining (no H2O2 stress treatment), at 10 uM: 91.2%,
  Experiment 2, TP53BP1-P DNA damage foci staining (no H2O2 stress treatment), at 10 uM: 154.0%,
[3]; [21]
  Experiment 2, H2A.X-P DNA damage foci staining (under H2O2 stress treatment), at 10 uM: 151.7%,
  Experiment 2, TP53BP1-P DNA damage foci staining (under H2O2 stress treatment), at 10 uM: 560.5%,
[3]; negative point, cultured human cells
  R = Potential DNA damaging: 0
[3]; summary score
  P = Potential DNA-damaging: 0
C. elegans; 60 μM, in liquid, wild type, with FuDR, 1.0 × 10^9 bacteria/ml
  relative change of mean lifespan vs control, Trial 1: +14.9%
C. elegans; 60 μM, in liquid, wild type, with FuDR, 2.5 × 10^9 bacteria/ml
  relative change of mean lifespan vs control, Trial 2: +6.0%
C. elegans; 60 μM, on plate, CF512 temperature-sensitive sterile animals, without FuDR, 1.0 × 10^11 bacteria/ml
  relative change of mean lifespan vs control, Trial 4: +9.0%
C. elegans; 60 μM, on plate, CF512 temperature-sensitive sterile animals, without FuDR, 2.0 × 10^10 bacteria/ml
  relative change of mean lifespan vs control, Trial 3: +21.0%
C. elegans; Assay 2(z), 1.0 × 10^9 bacteria/ml, wild type + FuDR (2012 July)
  Lifespan assay in liquid: +14.9%
C. elegans; Assay 3(aa), 2.5 × 10^9 bacteria/ml, wild type + FuDR
  Lifespan assay in liquid: +6.0%
C. elegans; Assay 4(ab), 2.0 × 10^10 bacteria/ml, CF512 worms, no FuDR
  Lifespan assay on plates: +21.0%
C. elegans; Assay 5(ac), 1.0 × 10^11 bacteria/ml, CF512 worms, no FuDR
  Lifespan assay on plates: +9.0%
C. elegans
  O = Life span- extending scores in worms: 1 (1 for lifespan extension observed in 2 trials)
  M = Lifespan-extending scores in worms: 1 (1 for lifespan extension observed in 2 trials)

## CC1C(=O)C(C)C(c2cc(Cl)ccc2O)NC1c1cc(Cl)ccc1O (stereo not shown) [O6]
Human PARP1
  L = PARP inhibition: 0
WI-38 cells [1]
  CdCl2-resistant: YES
  H2O2- & CdCl2-resistant: YES
  Assay 4: H2O2- & Cd-resistant: YES
  Assay 2: Cadmium-resistant: YES
WI-38 cells [1]; [4]
  fold induction at 10 µM: 2.18
WI-38 cells [1]; [5]
  fold induction at 10 µM: 2.05
WI-38 cells [1]; WI-38 cells, 10 μM
  CdCl2-resistant: YES
WI-38 cells [1]; [19]
  H2O2- & CdCl2-resistant: YES
WI-38 cells [1]; [6]
  A = Cadmium resistant: 1
WI-38 cells [1]; summary score
  A = Cadmium resistant: 1
  C = H2O2- & Cd-resistant: 1
WI-38 cells [2]; [7]
  fold induction at 10 µM: 0.81
WI-38 cells [2]; [8]
  fold induction at 10 µM: 0.79
WI-38 cells [2]; [6]
  B = MMS resistant: 0
WI-38 cells [2]; summary score
  B = MMS resistant: 0
  D = Triple resistant: 0
[3]; [9]
  activity at 10 µM: 122%
[3]; [10]
  activity at 10 µM: 87.7%
[3]; [11]
  activity at 10 µM: 130%
[3]; [12]
  activity at 10 µM: 86.3%
[3]; [13]
  activity at 10 µM: 538%
[3]; human, 24 h
  P = Potential DNA-damaging: 0
  R = Potential DNA damaging: 0
C. elegans; 60 μM, in liquid, wild type, with FuDR, 1.0 × 10^9 bacteria/ml, read-out: relative change of mean lifespan vs control, Trial 1
  ILS at 60 µM: 28.3%
C. elegans; 60 μM, in liquid, wild type, with FuDR, 2.5 × 10^9 bacteria/ml, read-out: relative change of mean lifespan vs control, Trial 2
  ILS at 60 µM: 10.3%
C. elegans; 60 μM, on plate, CF512 temperature-sensitive sterile animals, without FuDR, 2.0 × 10^10 bacteria/ml, read-out: relative change of mean lifespan vs control, Trial 3
  ILS at 60 µM: 3.9%
C. elegans; [14]
  ILS at 66 µM: 28.3%
C. elegans; [15]
  ILS at 66 µM: 10.3%
C. elegans; [16]
  ILS at 66 µM: 3.9%
C. elegans
  O = Life span- extending scores in worms: 1 (1 for lifespan extension observed in 2 trials)
  M = Lifespan-extending scores in worms: 1 (1 for lifespan extension observed in 2 trials)
